Data published in patent publication US9845319B2, “Amide substituted thiazoles as modulators of RORyt” (Janssen Pharmaceutica NV, priority 2014, dated 2017).

How the values were obtained:
[1] = target: T1, human RORγt ligand binding domain (RORγt LBD) (Homo sapiens, UniProt P51449); experiment: RORγt ThermoFluor assay; conditions: estimated from thermal shift concentration response
T1 construct: His-tag (N); TurboTEV protease cleavage site (ENLYFQG) (N); made in house; host or cells: E. coli (pHIS1, a modified pET expression vector)
T1 sequence (P51449 with tags, fused parts or gaps): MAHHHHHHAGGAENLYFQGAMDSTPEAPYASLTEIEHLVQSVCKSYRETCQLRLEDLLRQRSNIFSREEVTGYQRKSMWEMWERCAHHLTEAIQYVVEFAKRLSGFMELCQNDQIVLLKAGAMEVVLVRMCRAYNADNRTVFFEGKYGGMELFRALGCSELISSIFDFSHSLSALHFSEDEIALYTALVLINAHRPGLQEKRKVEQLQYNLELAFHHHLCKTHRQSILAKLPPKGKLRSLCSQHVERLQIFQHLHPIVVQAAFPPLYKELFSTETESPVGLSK
Method: This approach is applicable to a wide variety of systems, and rigorous in theoretical interpretation through quantitation of equilibrium binding constants (KD).
The shift in the melting point described as a ΔTm is proportional to the concentration and affinity of the ligand.
Protein and compound solutions are dispensed into black 384-well polypropylene PCR microplates (Abgene) and overlayed with silicone oil (1 μL, Fluka, type DC 200) to prevent evaporation.
Bar-coded assay plates are robotically loaded onto a thermostatically controlled PCR-type thermal block and then heated at a typical ramp-rate of 1° C./min for all experiments.
Fluorescence was measured by continuous illumination with UV light (Hamamatsu LC6) supplied via fiber optic and filtered through a band-pass filter (380-400 nm; >6 OD cutoff). Fluorescence emission of the entire 384-well plate was detected by measuring light intensity using a CCD camera (Sensys, Roper Scientific) filtered to detect 500±25 nm, resulting in simultaneous and independent readings of all 384 wells. Images were collected at each temperature, and the sum of the pixel intensity in a given area of the assay plate was recorded versus temperature. Reference wells contained RORγt without compounds, and the assay conditions were as follows: • 0.065 mg/mL RORγt • 60 μM 1,8-ANS • 100 mM Hepes, pH 7.0 • 10 mM NaCl • 2.5 mM GSH • 0.002% Tween-20
Project compounds were arranged in a pre-dosed mother plate (Greiner Bio-one) wherein compounds are serially diluted in 100% DMSO by 1:2 from a high concentration of 10 mM over 12 columns within a series (column 12 is a reference well containing DMSO, no compound). The compounds were robotically dispensed directly into assay plates (1×=46 nL) using a Hummingbird capillary liquid handling instrument (Digilab). Following compound dispense, protein and dye in buffer was added to achieve the final assay volume of 3 μL, followed by 1 μL of silicone oil.

full-length human RORγt = target: T2, full-length human RORγt (Homo sapiens, UniProt P51449); experiment: RORγt (full-length human) Reporter Assay, Conditions A; assay type: cell-based; conditions: for IC50: HEK293T cells, GAL4-DBD-RORγt, luciferase, read-out: RORγt (FL) Reporter Assay A, IC50; for inhibition at 2 µM: read-out: RORγt (FL) Reporter Assay A, % inhibition (* at 2 μM), 2 μM compound concentration (footnote *); for inhibition at 6 µM: read-out: RORγt (FL) Reporter Assay A, % inhibition @ 6 μM, 6 μM compound
T2 construct: expressed in transfected cells; host or cells: HEK293T, transiently transfected with pCMV-BD-ROR
T2 sequence (P51449 1-497 isoform P51449-2): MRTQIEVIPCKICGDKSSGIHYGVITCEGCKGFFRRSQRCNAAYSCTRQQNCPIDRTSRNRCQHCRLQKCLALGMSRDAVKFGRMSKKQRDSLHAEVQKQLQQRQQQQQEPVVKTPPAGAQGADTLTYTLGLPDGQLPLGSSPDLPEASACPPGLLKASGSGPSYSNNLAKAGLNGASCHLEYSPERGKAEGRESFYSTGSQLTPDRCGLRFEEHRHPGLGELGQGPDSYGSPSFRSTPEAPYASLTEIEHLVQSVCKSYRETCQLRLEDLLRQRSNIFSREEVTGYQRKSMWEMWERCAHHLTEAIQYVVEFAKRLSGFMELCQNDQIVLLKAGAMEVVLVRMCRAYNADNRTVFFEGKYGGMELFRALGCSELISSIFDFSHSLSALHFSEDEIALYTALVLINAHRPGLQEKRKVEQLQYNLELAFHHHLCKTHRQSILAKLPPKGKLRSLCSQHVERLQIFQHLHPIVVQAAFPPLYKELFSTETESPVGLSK
Method: After overnight (16 to 20 hours) incubation, media were removed and cells were lysed with 20 μL 1× Passive Lysis Buffer (Promega) for 10-15 minutes. Luminescence was measured using a BMG LUMIstar OPTIMA plate reader, after addition of 75 μL/well firefly luciferase buffer, followed by 75 μL/well Renilla luciferase buffer. To calculate the effect of compounds on RORγt activity, firefly values were normalized against values of DMSO only and values of reference compound at saturating concentration, then further normalized against Renilla signals. IC50s were generated by plotting final Renilla normalized data against compound concentration and percent inhibition was calculated against DMSO control.

Row | Kd [1] [nM] | IC50 (full-length human RORγt) [nM] | inhibition at 2 µM (full-length human RORγt) [%] | inhibition at 6 µM (full-length human RORγt) [%] | SMILES
1 | 1.3 | 12 | 105 |  | C[C@H](NS(=O)(=O)c1ccc(-c2sc(-c3cc(C(C)(C)O)on3)nc2C(=O)N2CCC(F)(F)CC2)c(Cl)c1Cl)C(F)(F)F [Example 13, (S)-2,3-Dichloro-4-(4-(4,4-difluoropiperidine-1-carbonyl)-2-(5-(2-hydroxypropan-2-yl)isoxazol-3-yl)thiazol-5-yl)-N-(1,1,1-trifluoropropan-2-yl)benzenesulfonamide]
2 | 27 |  |  |  | Cc1cc(C(O)(C(F)(F)F)C(F)(F)F)ccc1-c1sc(-c2noc(C(C)(C)O)n2)nc1C(=O)N1CCC[C@@H]1C [Example 32, (S)-(5-(4-(1,1,1,3,3,3-hexafluoro-2-hydroxypropan-2-yl)-2-methylphenyl)-2-(5-(2-hydroxypropan-2-yl)-1,2,4-oxadiazol-3-yl)thiazol-4-yl)(2-methylpyrrolidin-1-yl)methanone]
3 | 6.1 | 76 |  | 107 | CC(C)(O)c1nnc(-c2nc(C(=O)N3CCC(F)(F)CC3)c(-c3ccc(S(=O)(=O)NC(C)(C)C(F)(F)F)c(F)c3Cl)s2)o1 [Example 6/19, 3-Chloro-4-(4-(4,4-difluoropiperidine-1-carbonyl)-2-(5-(2-hydroxypropan-2-yl)-1,3,4-oxadiazol-2-yl)thiazol-5-yl)-2-fluoro-N-(1,1,1-trifluoro-2-methylpropan-2-yl)benzenesulfonamide]
4 | 9.4 | 68 |  | 103 | CC[C@H](NS(=O)(=O)c1ccc(-c2sc(-c3noc(CC(C)(C)O)n3)nc2C(=O)N2CCC(F)CC2)c(C(F)F)c1F)C(F)(F)F [Example 12, (S)-3-(Difluoromethyl)-2-fluoro-4-(4-(4-fluoropiperidine-1-carbonyl)-2-(5-(2-hydroxy-2-methylpropyl)-1,2,4-oxadiazol-3-yl)thiazol-5-yl)-N-(1,1,1-trifluorobutan-2-yl)benzenesulfonamide]
5 | 1 | 82 |  | 104 | C[C@H](NS(=O)(=O)c1ccc(-c2sc(-c3nnc(C(C)(C)O)o3)nc2C(=O)N2CCCC[C@@H]2C)c(C(F)F)c1F)C(F)(F)F [Example 6/18, 3-(Difluoromethyl)-2-fluoro-4-(2-(5-(2-hydroxypropan-2-yl)-1,3,4-oxadiazol-2-yl)-4-((S)-2-methylpiperidine-1-carbonyl)thiazol-5-yl)-N—((S)-1,1,1-trifluoropropan-2-yl)benzenesulfonamide]
6 | 24 | 50 | 106 |  | CC(C)(O)Cc1nnc(-c2nc(C(=O)N3CCC(F)CC3)c(-c3ccc(C(O)(C(F)(F)F)C(F)(F)F)c(Cl)c3Cl)s2)o1 [Example 3/4, (5-(2,3-Dichloro-4-(1,1,1,3,3,3-hexafluoro-2-hydroxypropan-2-yl)phenyl)-2-(5-(2-hydroxy-2-methylpropyl)-1,3,4-oxadiazol-2-yl)thiazol-4-yl)(4-fluoropiperidin-1-yl)methanone]
7 |  |  | 102 |  | CC[C@H](NS(=O)(=O)c1ccc(-c2sc(-c3nnc(C(C)(C)O)o3)nc2C(=O)N2CCC(F)CC2)c(Cl)c1Cl)C(F)(F)F [Example 6/1, (S)-2,3-Dichloro-4-(4-(4-fluoropiperidine-1-carbonyl)-2-(5-(2-hydroxypropan-2-yl)-1,3,4-oxadiazol-2-yl)thiazol-5-yl)-N-(1,1,1-trifluorobutan-2-yl)benzenesulfonamide]
8 | 12 | 46 |  | 108 | C[C@H](NS(=O)(=O)c1ccc(-c2sc(-c3noc(C(C)(C)O)n3)nc2C(=O)N2CCC(F)(F)CC2)c(C(F)F)c1F)C(F)(F)F [Example 11/2, (S)-3-(Difluoromethyl)-4-(4-(4,4-difluoropiperidine-1-carbonyl)-2-(5-(2-hydroxypropan-2-yl)-1,2,4-oxadiazol-3-yl)thiazol-5-yl)-2-fluoro-N-(1,1,1-trifluoropropan-2-yl)benzenesulfonamide]
9 | 18 |  |  |  | Cc1cc(C(O)(C(F)(F)F)C(F)(F)F)ccc1-c1sc(-c2nnc(C(C)(C)O)o2)nc1C(=O)N1CCC[C@@H]1C [Example 31, (S)-(5-(4-(1,1,1,3,3,3-hexafluoro-2-hydroxypropan-2-yl)-2-methylphenyl)-2-(5-(2-hydroxypropan-2-yl)-1,3,4-oxadiazol-2-yl)thiazol-4-yl)(2-methylpyrrolidin-1-yl)methanone]
10 | 22 |  |  |  | C[C@H]1CCCN1C(=O)c1nc(-c2noc(C(C)(C)O)n2)sc1-c1ccc(C(O)(C(F)(F)F)C(F)(F)F)cc1C(F)F [Example 30, (S)-(5-(2-(difluoromethyl)-4-(1,1,1,3,3,3-hexafluoro-2-hydroxypropan-2-yl)phenyl)-2-(5-(2-hydroxypropan-2-yl)-1,2,4-oxadiazol-3-yl)thiazol-4-yl)(2-methylpyrrolidin-1-yl)methanone]
11 |  | 9 |  | 104 | CC[C@H](NS(=O)(=O)c1ccc(-c2sc(-c3noc(CC(C)(C)C(=O)O)n3)nc2C(=O)N2CCCC[C@@H]2C)c(Cl)c1Cl)C(F)(F)F [Example 10, 3-(3-(5-(2,3-Dichloro-4-(N—((S)-1,1,1-trifluorobutan-2-yl)sulfamoyl)phenyl)-4-((S)-2-methylpiperidine-1-carbonyl)thiazol-2-yl)-1,2,4-oxadiazol-5-yl)-2,2-dimethylpropanoic acid]
12 | 17 |  |  |  | C[C@H]1CCCN1C(=O)c1nc(-c2nnc(C(C)(C)O)o2)sc1-c1ccc(C(O)(C(F)(F)F)C(F)(F)F)cc1C(F)F [Example 29, (S)-(5-(2-(difluoromethyl)-4-(1,1,1,3,3,3-hexafluoro-2-hydroxypropan-2-yl)phenyl)-2-(5-(2-hydroxypropan-2-yl)-1,3,4-oxadiazol-2-yl)thiazol-4-yl)(2-methylpyrrolidin-1-yl)methanone]
13 |  | 33 |  | 99 | CC[C@H](NS(=O)(=O)c1ccc(-c2sc(-c3noc(CC(C)(C)C(=O)O)n3)nc2C(=O)N2CCCC[C@@H]2C)c(C(F)F)c1Cl)C(F)(F)F [Example 10/4, 3-(3-(5-(3-Chloro-2-(difluoromethyl)-4-(N—((S)-1,1,1-trifluorobutan-2-yl)sulfamoyl)phenyl)-4-((S)-2-methylpiperidine-1-carbonyl)thiazol-2-yl)-1,2,4-oxadiazol-5-yl)-2,2-dimethylpropanoic acid]
14 | 5.5 |  |  |  | CC(C)(O)c1nnc(-c2nc(C(=O)N3CCC(F)(F)CC3)c(-c3ccc(C(O)(C(F)(F)F)C(F)(F)F)cc3C(F)F)s2)o1 [Example 28, (5-(2-(difluoromethyl)-4-(1,1,1,3,3,3-hexafluoro-2-hydroxypropan-2-yl)phenyl)-2-(5-(2-hydroxypropan-2-yl)-1,3,4-oxadiazol-2-yl)thiazol-4-yl)(4,4-difluoropiperidin-1-yl)methanone]
